Results: patent US20080051466A1, “Isoalpha acid based protein kinase modulation cancer treatment” (Metaproteomics, LLC, priority 2006, published 2008)

Columns and labels:
Test in all cases: KinaseProfiler Assay
Format in all cases: biochemical
Pim-2 = Pim-2 (Homo sapiens, UniProt Q9P1W9); details: read-out: Pim-2, % of Control
Syk = Syk (Homo sapiens, UniProt P43405); details: read-out: Syk, % of Control
DAPK1 = DAPK1 (Homo sapiens, UniProt P53355); details: read-out: DAPK1, % of Control
PKBβ = PKBβ (Homo sapiens, UniProt P31751); details: read-out: PKBβ, % of Control
PKBβ, sequence (P31751 whole entry): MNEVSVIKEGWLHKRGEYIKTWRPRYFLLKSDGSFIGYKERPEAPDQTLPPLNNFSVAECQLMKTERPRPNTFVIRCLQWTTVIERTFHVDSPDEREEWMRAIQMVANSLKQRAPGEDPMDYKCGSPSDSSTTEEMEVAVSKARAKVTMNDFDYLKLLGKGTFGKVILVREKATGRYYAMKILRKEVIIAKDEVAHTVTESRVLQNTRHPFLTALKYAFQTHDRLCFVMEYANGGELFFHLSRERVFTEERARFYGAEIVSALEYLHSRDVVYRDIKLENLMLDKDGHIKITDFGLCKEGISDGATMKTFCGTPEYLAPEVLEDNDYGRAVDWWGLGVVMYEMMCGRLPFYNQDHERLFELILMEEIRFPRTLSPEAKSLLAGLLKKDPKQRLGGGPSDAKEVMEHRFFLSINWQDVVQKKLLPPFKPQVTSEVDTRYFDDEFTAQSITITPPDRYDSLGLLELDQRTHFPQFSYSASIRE

ALK4 = ALK4 (Homo sapiens, UniProt P36896); details: read-out: ALK4, % of Control
DRAK1 = target: T1, DRAK1 (Homo sapiens, UniProt Q9UEE5); details: read-out: DRAK1, % of Control
T1 sequence (Q9UEE5 1-414): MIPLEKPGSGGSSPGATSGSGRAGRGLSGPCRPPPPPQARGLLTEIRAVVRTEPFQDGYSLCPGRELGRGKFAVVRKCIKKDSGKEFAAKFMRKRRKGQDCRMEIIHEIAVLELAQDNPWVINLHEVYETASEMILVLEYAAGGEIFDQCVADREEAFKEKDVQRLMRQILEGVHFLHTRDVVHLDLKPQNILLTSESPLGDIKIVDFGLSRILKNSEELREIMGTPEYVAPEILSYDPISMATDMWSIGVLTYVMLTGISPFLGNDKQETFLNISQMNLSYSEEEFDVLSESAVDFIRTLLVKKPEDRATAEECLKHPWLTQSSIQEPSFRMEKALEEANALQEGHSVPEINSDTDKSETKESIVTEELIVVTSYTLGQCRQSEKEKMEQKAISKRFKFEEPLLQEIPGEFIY

Fes = Fes (Homo sapiens, UniProt P07332); details: read-out: Fes, % of Control
Fes, sequence (P07332 whole entry): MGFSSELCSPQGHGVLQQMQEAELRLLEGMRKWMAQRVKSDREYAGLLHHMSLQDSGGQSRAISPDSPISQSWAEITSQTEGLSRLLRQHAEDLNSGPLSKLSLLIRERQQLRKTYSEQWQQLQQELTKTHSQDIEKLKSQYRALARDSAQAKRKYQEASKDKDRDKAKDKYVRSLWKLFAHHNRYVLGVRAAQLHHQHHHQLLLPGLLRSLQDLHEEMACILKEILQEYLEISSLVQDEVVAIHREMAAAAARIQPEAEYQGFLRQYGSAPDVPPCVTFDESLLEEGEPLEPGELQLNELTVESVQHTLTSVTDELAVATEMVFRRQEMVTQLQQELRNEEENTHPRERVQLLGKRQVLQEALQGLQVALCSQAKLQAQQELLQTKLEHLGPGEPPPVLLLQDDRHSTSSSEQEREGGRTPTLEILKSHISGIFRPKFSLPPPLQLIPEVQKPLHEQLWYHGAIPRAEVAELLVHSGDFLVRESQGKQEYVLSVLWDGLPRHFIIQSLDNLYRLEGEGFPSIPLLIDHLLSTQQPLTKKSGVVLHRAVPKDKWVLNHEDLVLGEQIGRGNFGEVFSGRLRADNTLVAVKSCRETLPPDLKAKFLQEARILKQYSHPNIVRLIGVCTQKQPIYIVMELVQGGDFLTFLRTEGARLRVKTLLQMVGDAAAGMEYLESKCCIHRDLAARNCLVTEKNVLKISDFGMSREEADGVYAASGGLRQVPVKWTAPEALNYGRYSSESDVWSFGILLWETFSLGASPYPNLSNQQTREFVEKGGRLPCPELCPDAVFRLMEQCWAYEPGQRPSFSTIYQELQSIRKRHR

Pim-1 = Pim-1 (Homo sapiens, UniProt P11309); details: read-out: Pim-1, % of Control
Pim-1, sequence (P11309 whole entry): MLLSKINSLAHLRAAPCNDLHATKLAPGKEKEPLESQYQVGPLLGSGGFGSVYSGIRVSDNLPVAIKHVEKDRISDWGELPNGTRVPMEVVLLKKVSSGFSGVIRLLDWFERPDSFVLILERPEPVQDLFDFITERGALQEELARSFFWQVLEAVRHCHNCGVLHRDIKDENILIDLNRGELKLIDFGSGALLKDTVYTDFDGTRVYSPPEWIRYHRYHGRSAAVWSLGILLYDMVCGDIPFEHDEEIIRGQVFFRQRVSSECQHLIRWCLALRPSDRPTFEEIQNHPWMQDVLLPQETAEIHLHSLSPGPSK

CHK2 = CHK2 (Homo sapiens, UniProt O96017); details: read-out: CHK2, % of Control
CHK2, sequence (O96017 whole entry): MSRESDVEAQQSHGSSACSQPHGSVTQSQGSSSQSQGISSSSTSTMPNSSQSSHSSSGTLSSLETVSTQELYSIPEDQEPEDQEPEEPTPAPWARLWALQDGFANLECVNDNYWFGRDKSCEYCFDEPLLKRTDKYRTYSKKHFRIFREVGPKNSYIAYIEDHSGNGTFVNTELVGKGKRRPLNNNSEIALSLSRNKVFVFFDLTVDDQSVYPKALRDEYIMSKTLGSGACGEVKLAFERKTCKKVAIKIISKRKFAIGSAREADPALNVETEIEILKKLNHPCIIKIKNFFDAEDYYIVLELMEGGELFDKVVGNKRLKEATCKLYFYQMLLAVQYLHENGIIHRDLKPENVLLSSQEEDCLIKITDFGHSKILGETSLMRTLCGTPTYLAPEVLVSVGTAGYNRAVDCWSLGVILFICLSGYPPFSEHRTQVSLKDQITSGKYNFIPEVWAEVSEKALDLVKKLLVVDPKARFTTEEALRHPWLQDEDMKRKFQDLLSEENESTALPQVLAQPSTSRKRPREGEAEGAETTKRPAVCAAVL

IRAK1 = IRAK1 (Homo sapiens, UniProt P51617); details: read-out: IRAK1, % of Control
IRAK1, sequence (P51617 whole entry): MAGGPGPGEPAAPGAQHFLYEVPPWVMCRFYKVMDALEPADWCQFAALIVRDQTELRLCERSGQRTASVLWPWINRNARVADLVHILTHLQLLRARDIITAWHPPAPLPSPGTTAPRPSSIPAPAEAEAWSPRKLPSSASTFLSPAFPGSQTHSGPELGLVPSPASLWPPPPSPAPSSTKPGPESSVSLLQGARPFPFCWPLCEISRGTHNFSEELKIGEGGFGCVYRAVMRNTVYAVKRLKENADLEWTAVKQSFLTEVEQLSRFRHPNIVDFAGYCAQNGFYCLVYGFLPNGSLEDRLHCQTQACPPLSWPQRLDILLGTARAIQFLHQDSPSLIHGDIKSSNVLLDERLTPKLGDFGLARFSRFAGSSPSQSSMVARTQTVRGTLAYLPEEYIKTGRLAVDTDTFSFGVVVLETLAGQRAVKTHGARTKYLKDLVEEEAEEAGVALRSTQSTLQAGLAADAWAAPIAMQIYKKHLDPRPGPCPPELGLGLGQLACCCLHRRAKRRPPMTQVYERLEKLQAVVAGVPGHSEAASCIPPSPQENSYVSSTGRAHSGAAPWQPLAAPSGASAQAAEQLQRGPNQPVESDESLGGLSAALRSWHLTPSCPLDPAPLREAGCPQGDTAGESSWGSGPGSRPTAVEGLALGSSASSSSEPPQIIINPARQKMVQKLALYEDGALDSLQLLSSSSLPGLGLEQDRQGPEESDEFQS

PKBγ = PKBγ (Homo sapiens, UniProt Q9Y243); details: read-out: PKBγ, % of Control
PKBγ, sequence (Q9Y243 whole entry): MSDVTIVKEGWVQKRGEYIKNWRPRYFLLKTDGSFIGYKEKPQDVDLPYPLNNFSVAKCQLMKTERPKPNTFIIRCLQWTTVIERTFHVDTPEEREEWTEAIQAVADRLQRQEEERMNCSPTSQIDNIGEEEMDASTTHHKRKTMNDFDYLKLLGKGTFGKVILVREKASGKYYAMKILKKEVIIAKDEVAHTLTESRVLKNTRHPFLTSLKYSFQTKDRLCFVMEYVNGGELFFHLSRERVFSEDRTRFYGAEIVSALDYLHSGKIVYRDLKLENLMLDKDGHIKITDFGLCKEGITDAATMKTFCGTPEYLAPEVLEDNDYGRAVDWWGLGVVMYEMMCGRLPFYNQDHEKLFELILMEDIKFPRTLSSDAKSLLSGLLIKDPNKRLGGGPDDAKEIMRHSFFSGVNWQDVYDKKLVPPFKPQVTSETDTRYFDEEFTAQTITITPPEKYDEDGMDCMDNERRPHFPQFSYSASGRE

Hck = Hck (Homo sapiens, UniProt P08631); details: read-out: Hck, % of Control
Aurora-A = target: T2, Aurora-A (Homo sapiens, UniProt O14965); details: read-out: Aurora-A, % of Control
T2 sequence (O14965 1-403): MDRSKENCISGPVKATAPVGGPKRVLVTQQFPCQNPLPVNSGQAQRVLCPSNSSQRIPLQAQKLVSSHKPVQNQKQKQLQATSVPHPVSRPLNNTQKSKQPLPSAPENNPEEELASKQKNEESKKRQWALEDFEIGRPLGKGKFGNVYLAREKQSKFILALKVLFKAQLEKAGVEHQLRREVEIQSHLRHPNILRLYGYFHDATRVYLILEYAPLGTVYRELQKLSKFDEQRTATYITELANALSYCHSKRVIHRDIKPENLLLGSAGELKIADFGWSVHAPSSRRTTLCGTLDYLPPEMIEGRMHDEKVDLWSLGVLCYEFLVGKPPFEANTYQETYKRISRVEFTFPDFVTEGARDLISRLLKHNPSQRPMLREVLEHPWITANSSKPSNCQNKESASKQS

CDK5/p25 = CDK5/p25 (Homo sapiens, UniProt Q00535); details: read-out: CDK5/p25, % of Control
MINK = MINK (Homo sapiens, UniProt Q8N4C8); details: read-out: MINK, % of Control
MINK, sequence (Q8N4C8 whole entry): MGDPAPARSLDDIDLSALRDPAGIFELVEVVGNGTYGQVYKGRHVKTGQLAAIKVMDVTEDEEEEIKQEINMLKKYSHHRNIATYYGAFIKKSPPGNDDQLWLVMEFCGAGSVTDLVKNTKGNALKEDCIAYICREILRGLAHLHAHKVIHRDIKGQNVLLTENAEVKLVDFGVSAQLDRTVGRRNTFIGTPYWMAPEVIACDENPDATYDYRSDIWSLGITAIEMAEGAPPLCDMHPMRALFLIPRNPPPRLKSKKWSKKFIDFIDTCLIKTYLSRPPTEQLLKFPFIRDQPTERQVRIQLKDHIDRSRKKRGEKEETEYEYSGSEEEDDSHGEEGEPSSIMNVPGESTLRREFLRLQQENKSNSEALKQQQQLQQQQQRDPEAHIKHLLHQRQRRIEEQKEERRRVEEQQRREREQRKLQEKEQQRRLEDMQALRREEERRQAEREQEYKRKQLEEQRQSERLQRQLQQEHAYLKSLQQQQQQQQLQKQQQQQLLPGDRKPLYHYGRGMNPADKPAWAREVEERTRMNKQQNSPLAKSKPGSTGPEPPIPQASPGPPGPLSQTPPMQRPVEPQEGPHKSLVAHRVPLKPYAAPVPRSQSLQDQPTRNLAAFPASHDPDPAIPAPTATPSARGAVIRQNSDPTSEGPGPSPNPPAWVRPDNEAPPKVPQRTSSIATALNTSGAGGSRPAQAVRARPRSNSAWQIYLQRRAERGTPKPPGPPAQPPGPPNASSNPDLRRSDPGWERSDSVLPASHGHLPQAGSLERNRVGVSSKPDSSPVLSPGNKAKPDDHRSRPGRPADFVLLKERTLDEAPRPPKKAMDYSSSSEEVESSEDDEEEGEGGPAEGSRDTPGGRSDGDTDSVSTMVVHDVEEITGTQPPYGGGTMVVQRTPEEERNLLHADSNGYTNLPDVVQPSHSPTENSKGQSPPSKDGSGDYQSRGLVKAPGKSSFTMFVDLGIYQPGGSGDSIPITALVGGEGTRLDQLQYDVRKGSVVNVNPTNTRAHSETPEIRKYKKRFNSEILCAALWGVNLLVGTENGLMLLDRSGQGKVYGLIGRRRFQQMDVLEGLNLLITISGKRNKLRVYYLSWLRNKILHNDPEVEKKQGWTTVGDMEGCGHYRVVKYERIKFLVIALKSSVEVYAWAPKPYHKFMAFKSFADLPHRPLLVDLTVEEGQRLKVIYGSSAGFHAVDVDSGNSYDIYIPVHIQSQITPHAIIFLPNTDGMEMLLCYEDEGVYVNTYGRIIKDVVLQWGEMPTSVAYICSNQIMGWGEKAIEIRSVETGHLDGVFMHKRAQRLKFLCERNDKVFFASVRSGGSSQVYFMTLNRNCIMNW

Pim-2, sequence (Q9P1W9 whole entry): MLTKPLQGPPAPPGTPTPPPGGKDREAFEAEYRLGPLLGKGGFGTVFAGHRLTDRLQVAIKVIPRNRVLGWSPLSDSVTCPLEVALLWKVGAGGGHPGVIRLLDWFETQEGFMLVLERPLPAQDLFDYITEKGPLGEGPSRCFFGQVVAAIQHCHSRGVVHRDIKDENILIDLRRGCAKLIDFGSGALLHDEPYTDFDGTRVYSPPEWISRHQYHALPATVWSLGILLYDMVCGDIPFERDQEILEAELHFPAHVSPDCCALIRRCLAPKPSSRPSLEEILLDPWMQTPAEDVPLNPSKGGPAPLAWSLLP

**Q.** With `COc1cc(O)c(CC=C(C)C)c(O)c1C(=O)/C=C/c1ccc(O)cc1` [Xanthohumol, xanthohumol] as the molecule, how does the remaining activity at 1 µg/mL (Pim-2; 1 ug/ml) read?
**A.** 104%

**Q.** What about the remaining activity at 5 µg/mL (Pim-2; 5 ug/ml) of the same molecule?
**A.** 48%

**Q.** What about the remaining activity at 25 µg/mL (Pim-2; 25 ug/ml) of the same molecule?
**A.** 14%

**Q.** What about the remaining activity at 50 µg/mL (Pim-2; 50 ug/ml) of the same molecule?
**A.** 6%

**Q.** What about the remaining activity at 1 µg/mL (Syk; 1 ug/ml) of the same molecule?
**A.** 95%

**Q.** What about the remaining activity at 5 µg/mL (Syk; 5 ug/ml) of the same molecule?
**A.** 60%

**Q.** And the remaining activity at 25 µg/mL (Syk; 25 ug/ml)?
**A.** 32%

**Q.** And the remaining activity at 50 µg/mL (Syk; 50 ug/ml)?
**A.** 17%

**Q.** And the remaining activity at 5 µg/mL (DAPK1; 5 ug/ml)?
**A.** 85%

**Q.** What about the remaining activity at 50 µg/mL (DAPK1; 50 ug/ml) of the same molecule?
**A.** 20%

**Q.** What about the remaining activity at 1 µg/mL (PKBβ; 1 ug/ml) of the same molecule?
**A.** 146%

**Q.** What about the remaining activity at 5 µg/mL (PKBβ; 5 ug/ml) of the same molecule?
**A.** 102%

**Q.** What about the remaining activity at 25 µg/mL (PKBβ; 25 ug/ml) of the same molecule?
**A.** 1%

**Q.** And the remaining activity at 50 µg/mL (PKBβ; 50 ug/ml)?
**A.** 8%

**Q.** What about the remaining activity at 1 µg/mL (ALK4; 1 ug/ml) of the same molecule?
**A.** 116%

**Q.** And the remaining activity at 25 µg/mL (ALK4; 25 ug/ml)?
**A.** 71%

**Q.** And the remaining activity at 1 µg/mL (DRAK1; 1 ug/ml)?
**A.** 133%

**Q.** What about the remaining activity at 25 µg/mL (DRAK1; 25 ug/ml) of the same molecule?
**A.** 19%

**Q.** What about the remaining activity at 50 µg/mL (DRAK1; 50 ug/ml) of the same molecule?
**A.** -5%

**Q.** And the remaining activity at 1 µg/mL (Fes; 1 ug/ml)?
**A.** 131%

**Q.** And the remaining activity at 5 µg/mL (Fes; 5 ug/ml)?
**A.** 106%

**Q.** And the remaining activity at 25 µg/mL (Fes; 25 ug/ml)?
**A.** 102%

**Q.** What about the remaining activity at 50 µg/mL (Fes; 50 ug/ml) of the same molecule?
**A.** 26%

**Q.** What about the remaining activity at 1 µg/mL (Pim-1; 1 ug/ml) of the same molecule?
**A.** 88%

**Q.** And the remaining activity at 5 µg/mL (Pim-1; 5 ug/ml)?
**A.** 35%

**Q.** What about the remaining activity at 50 µg/mL (Pim-1; 50 ug/ml) of the same molecule?
**A.** 3%

**Q.** And the remaining activity at 1 µg/mL (CHK2; 1 ug/ml)?
**A.** 25%

**Q.** What about the remaining activity at 5 µg/mL (CHK2; 5 ug/ml) of the same molecule?
**A.** 5%

**Q.** What about the remaining activity at 25 µg/mL (CHK2; 25 ug/ml) of the same molecule?
**A.** 3%

**Q.** And the remaining activity at 1 µg/mL (IRAK1; 1 ug/ml)?
**A.** 129%

**Q.** What about the remaining activity at 5 µg/mL (IRAK1; 5 ug/ml) of the same molecule?
**A.** 104%

**Q.** What about the remaining activity at 50 µg/mL (IRAK1; 50 ug/ml) of the same molecule?
**A.** 36%

**Q.** What about the remaining activity at 1 µg/mL (PKBγ; 1 ug/ml) of the same molecule?
**A.** 104%

**Q.** What about the remaining activity at 5 µg/mL (PKBγ; 5 ug/ml) of the same molecule?
**A.** 104%

**Q.** And the remaining activity at 25 µg/mL (PKBγ; 25 ug/ml)?
**A.** 12%

**Q.** And the remaining activity at 1 µg/mL (Hck; 1 ug/ml)?
**A.** 85%

**Q.** What about the remaining activity at 25 µg/mL (Hck; 25 ug/ml) of the same molecule?
**A.** 17%

**Q.** What about the remaining activity at 5 µg/mL (Aurora-A; 5 ug/ml) of the same molecule?
**A.** 27%

**Q.** And the remaining activity at 25 µg/mL (Aurora-A; 25 ug/ml)?
**A.** 3%

**Q.** And the remaining activity at 50 µg/mL (Aurora-A; 50 ug/ml)?
**A.** 8%

**Q.** And the remaining activity at 25 µg/mL (CDK5/p25; 25 ug/ml)?
**A.** 24%

**Q.** And the remaining activity at 50 µg/mL (CDK5/p25; 50 ug/ml)?
**A.** 87%

**Q.** What about the remaining activity at 1 µg/mL (MINK; 1 ug/ml) of the same molecule?
**A.** 42%

**Q.** And the remaining activity at 5 µg/mL (MINK; 5 ug/ml)?
**A.** 10%

**Q.** What about the remaining activity at 25 µg/mL (MINK; 25 ug/ml) of the same molecule?
**A.** 5%

**Q.** What about the remaining activity at 50 µg/mL (MINK; 50 ug/ml) of the same molecule?
**A.** 7%
